From US8748485B2, “Compound and medical use thereof” (Ono Pharmaceuticals Co., Ltd., priority 2010, dated 2014)

Columns and labels:
[1] = Kinetic study in dogs (combination use with dopa decarboxylase inhibitor carbidopa); format: in vivo, dogs (male beagle dogs); details: dogs given carbidopa 60 mg/kg; oral Example 5 18.6 mg/kg (6 mg/kg expressed in terms of levodopa)
Protocol: (3) Kinetic Study in Dogs (Combination Use with Dopa Decarboxylase Inhibitor (DCI)) […] As the DCI, carbidopa was used. […] The preparation of an analytical sample and analysis were carried out according to the method described in the same section in the Biological Example 1(1).

[2] = Simulation of kinetics in human blood on basis of results of kinetic study in dogs; details: simulated in humans versus SINEMET 100 mg tablet
Protocol: (4) Simulation of Kinetics in Human Blood on Basis of Results of Kinetic Study in Dogs
For the purpose of validating whether or not the effect of releasing levodopa over a long period of time of the compound of the present invention observed in the kinetic study in dogs is also observed in humans, a simulation of kinetics in human blood was carried out on the basis of the results of the kinetic study in dogs described in the above section (3).
By using the values obtained in the kinetic study in dog blood in the above section (3), a prediction model that simulates the kinetics in human blood was constructed.
Specifically, the blood concentration-time profile of levodopa or the compound of the present invention obtained in the kinetic study in dogs was input into Phoenix WinNonlin version 6.1 (Pharsight Corporation), which is kinetic analysis software, and the fitting of the plasma concentration of levodopa was carried out, whereby a prediction model that simulates the blood kinetics of levodopa was constructed.
Into this prediction model, the values of blood kinetics when a levodopa preparation was administered to humans described in the literature (Br. J. Clin. Pharm., 1989, Vol. 28, pp. 61-69, D. R. C. Robertson et al.) were input, and the kinetics of the compound of the present invention in human blood was simulated. […]

p53R2 = test: Mutagenicity assay using mammalian cells (NESMAGET method); format: cell-based
Protocol: In the treatment of Parkinson's disease and/or Parkinson's syndrome, there is a possibility that a levodopa prodrug is continued to be taken over a long period of time of several years to several decades. Therefore, an evaluation was carried out as to whether or not the compound of the present invention has mutagenicity by a mutagenicity assay using mammalian cells.
A mutagenicity assay using mammalian cells was carried out as a commissioning test to be undertaken by Nissin Foods Holdings Co., Ltd. The present method also called NESMAGET method is a method in which the expression of p53R2 which is a DNA repair gene is detected by luciferase activity, and the specific experimental technique is described in JP-A-2005-000024 and Japanese Patent No. 4243716. In the determination as to whether or not the result of this test was positive, the luciferase activity of p53R2 in the case of a vehicle control (0.3% dimethylsulfoxide) was taken as 100%, and a concentration at which a relative luciferase activity exceeded 200% was determined to be “concentration at which mutagenicity was determined to be positive”.

[3] = Kinetic study in dogs (oral administration, plasma levodopa); details: dog, in vivo, po, 3 mg/kg
From the text: The relationship between the blood concentration of levodopa and side effects in patients who take levodopa has been gradually elucidated. […] In order to reduce the number of doses of levodopa and avoid side effects such as dyskinesia and wearing-off in patients who take levodopa, it is necessary to maintain the blood concentration of levodopa within a therapeutic range as long as possible.
These levodopa prodrugs are prodrugs containing an ester bond, and therefore, it is considered that among a number of enzymes, carboxyesterase plays the most important role in the process of producing levodopa by metabolizing the compound after the compound is administered in vivo. Therefore, as an animal species to be used for performing a kinetic study, dogs in which the organ distribution of carboxyesterase is most similar to that of humans were selected as subjects for evaluation.
The thus obtained drug solution was administered by gavage through a gastric tube into the stomach of dogs (male beagle dogs) which were fasted from the day before the administration. At 15 and 30 minutes, and 1, 2, 4, 6, and 8 hours after administration of the drug solution, 1 mL of blood was collected from a cephalic vein with a heparinized syringe. Immediately after the collection, the collected blood was centrifuged in a desktop centrifuge at 14500 rpm for 45 seconds. Then, acetonitrile containing 0.1125% formic acid was added to the thus obtained plasma in an amount as twice as large as the volume of the plasma, followed by stirring, and then, the resulting sample was stored at −20° C. until measurement.
The sample was thawed on the measurement day, followed by stirring and centrifugation at 13000 rpm for 3 minutes (at 4° C.). The resulting supernatant was filtered and the filtrate was analyzed by LC/MS/MS. The analysis was performed by LC/MS/MS under the following conditions.
Measurement Apparatus: API-5000 (manufactured by Applied Biosystems, Inc.)
Analytical column: CAPCELL PAK CR (1:4) (4.6 mm, I.D.×250 mm, 5 μm)
Analytical column temperature: 40° C.
Mobile phase: A: 5 mM ammonium formate (pH 3.9), B: acetonitrile (A/B=17/3)
Detection (levodopa): m/z (precursor): 196.19, m/z (product): 134.99
DP (Declustering Potential): −60
CE (Collision Energy): −25
CXP (Collision Cell Exit Potential): −17
Incidentally, the numerical value in the column which indicates the dose expressed in terms of levodopa refers to a dose equivalent to that of levodopa.

[4] = test system: rat model injected with 6-hydroxydopamine into the medial forebrain bundle; test: Rotation test in model injected with 6-hydroxydopamine into medial forebrain bundle; format: in vivo, rats (male Crl:CD(SD)IGS); details: 6-OHDA rats
From the text: In the experiment, male Crl:CD(SD)IGS rats (Charles River Japan, Inc.) supplied at 5 weeks of age were used. The rats were housed in Econ cages (4 or less rats per cage) and were raised by giving free access to solid feed CRF-1 (Oriental Yeast Co., Ltd.) and tap water (in a water bottle) until they were subjected to the experiment. When acclimation after shipping was completed, each of the Crl:CD(SD)IGS rats at 6 weeks of age was anesthetized with pentobarbital sodium (Somnopentyl (registered trademark) injectable solution, 35 mg/kg, intraperitoneal injection). Subsequently, for the purpose of preventing damage to norepinephrine neurons by 6-hydroxydopamine (6-OHDA), desipramine (25 mg/kg) was intraperitoneally injected, and the rat was held and fixed by a brain fixation device. A small bone window was opened with a hand drill at a desired site, and 6-OHDA was injected into the medial forebrain bundle according to the brain atlas of Paxinos and Watson using a 30 G cannula (Brain Science Idea. Co. Ltd.) with a needle tip cut at an angle of 45° (site of injection: A=−4.5 mm, L=+1.2 mm, and V=−7.8 mm with respect to the bregma, injection amount: 8 μg/4 μL/8 min/site in each case). […] Thereafter, the burr hole was closed with an instant glue, and then sutured and disinfected with iodine tincture. […] In a rotation test, a device configured such that a black plastic circular cylinder having a diameter of 30 cm and a height of 35 cm was placed upright in a black-painted bowl having an opening diameter of 35 cm and a bottom diameter of 17 cm was used (the height of the curve from the bottom of the bowl to the bottom edge of the cylinder was set to 7 cm). The rat was placed in the device (one rat per device) and acclimated to the device for 30 minutes. Thereafter, a test substance was administered to the rat, and the rat was returned to the same device and videotaped. […] As for the number of rotations, a 360° rotation in one direction was determined to be one rotation. In the case where the direction (body's direction of movement or movement direction) was changed during rotation, the rotation was not included in the count. […] Incidentally, in each case, benserazide which is a dopa decarboxylase inhibitor (8 mg/kg) was orally administered concomitantly. […] In addition, the respective values are each a mean of the values obtained using 11 rats in each group and its standard error.

time after administration at which plasma levodopa reached Cmax [1]: 4 h
time in the therapeutic range in humans relative to the currently available levodopa preparation [2]: about 3.4 times
AUC (area under the blood concentration-time curve of levodopa) [3]: 0.89 μg^+ hr/mL
Cmax/C6 hr (ratio of maximum plasma concentration and plasma concentration at 6 hours after oral administration, levodopa) ([3]; male, beagle): 8.0
SMILES: CC(C)(OC(=O)c1ccccc1)C(=O)Oc1ccc(C[C@H](N)C(=O)O)cc1OC(=O)C(C)(C)OC(=O)c1ccccc1.Cl [Example 5, (2S)-2-Amino-3-(3,4-bis((2-(benzoyloxy)-2-methylpropanoyl)oxy)phenyl)propanoic acid hydrochloride]
Mutagenicity assay (NESMAGET) Concentration at which mutagenicity was determined to be positive (p53R2; concentration at which relative luciferase activity of p53R2 exceeded 200% (vehicle control 0.3% dimethylsulfoxide = 100%)): >200 µg/mL
determination of mutagenicity (p53R2; positive = relative luciferase activity of p53R2 exceeded 200%, compound of the present invention up to 200 μg/mL): mutagenicity was not observed
lapse from administration after which the number of rotations began to increase ([4]; oral Example 5 100 mg/kg expressed in terms of levodopa, benserazide 8 mg/kg): ≥ 60 min
time after administration at which the number of rotations reached a maximum value ([4]; oral, levodopa 30 mg/kg or Example 5 100 mg/kg expressed in terms of levodopa, benserazide 8 mg/kg): 140 min
maximum value of the number of rotations per 10 minutes ([4]; oral, levodopa 30 mg/kg or Example 5 100 mg/kg expressed in terms of levodopa, benserazide 8 mg/kg concomitantly, N=11): ≥ 90 times
